Test results as given in PMC9329436, “Optimization of the 4-anilinoquin(az)oline scaffold as epidermal growth factor receptor (EGFR) inhibitors for chordoma utilizing a toxicology profiling assay platform” (Scientific Reports, 2022).
Like-named read-outs stand apart in the source and are kept apart here.

Assays:
Type in all cases: biochemical
[1] = molecular target: 320 wild-type protein kinases (Homo sapiens, UniProt Q9H4B4); details: singlicate
Text: (§1) Table S4. Profiling of two compounds at two concentrations against 320 wild-type protein kinases; singlicate measurement; Residual activities (% of control).

[2] = molecular target: 320 wild-type protein kinases (Homo sapiens, UniProt P53350); details: singlicate
Sequence of 320 wild-type protein kinases (Homo sapiens, UniProt P53350) (P53350 whole entry): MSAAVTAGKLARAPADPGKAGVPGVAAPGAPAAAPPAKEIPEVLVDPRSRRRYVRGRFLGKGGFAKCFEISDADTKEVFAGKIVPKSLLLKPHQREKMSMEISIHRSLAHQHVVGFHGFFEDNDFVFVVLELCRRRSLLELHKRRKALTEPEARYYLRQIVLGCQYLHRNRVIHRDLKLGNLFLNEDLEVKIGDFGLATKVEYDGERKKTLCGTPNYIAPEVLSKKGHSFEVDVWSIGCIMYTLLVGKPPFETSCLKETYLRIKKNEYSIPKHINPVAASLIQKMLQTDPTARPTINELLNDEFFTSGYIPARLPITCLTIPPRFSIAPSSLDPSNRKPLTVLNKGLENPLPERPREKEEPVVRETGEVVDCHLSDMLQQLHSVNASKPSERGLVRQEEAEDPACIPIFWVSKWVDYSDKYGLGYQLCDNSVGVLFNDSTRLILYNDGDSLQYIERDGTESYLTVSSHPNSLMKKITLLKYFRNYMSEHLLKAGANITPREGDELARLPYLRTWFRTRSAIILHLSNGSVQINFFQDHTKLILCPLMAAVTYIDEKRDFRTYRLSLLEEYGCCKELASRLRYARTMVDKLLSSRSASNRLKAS
Text: as §1

[3] = molecular target: T1, 320 wild-type protein kinases (Homo sapiens, UniProt P52333); details: singlicate
T1 sequence (P52333 1-1124): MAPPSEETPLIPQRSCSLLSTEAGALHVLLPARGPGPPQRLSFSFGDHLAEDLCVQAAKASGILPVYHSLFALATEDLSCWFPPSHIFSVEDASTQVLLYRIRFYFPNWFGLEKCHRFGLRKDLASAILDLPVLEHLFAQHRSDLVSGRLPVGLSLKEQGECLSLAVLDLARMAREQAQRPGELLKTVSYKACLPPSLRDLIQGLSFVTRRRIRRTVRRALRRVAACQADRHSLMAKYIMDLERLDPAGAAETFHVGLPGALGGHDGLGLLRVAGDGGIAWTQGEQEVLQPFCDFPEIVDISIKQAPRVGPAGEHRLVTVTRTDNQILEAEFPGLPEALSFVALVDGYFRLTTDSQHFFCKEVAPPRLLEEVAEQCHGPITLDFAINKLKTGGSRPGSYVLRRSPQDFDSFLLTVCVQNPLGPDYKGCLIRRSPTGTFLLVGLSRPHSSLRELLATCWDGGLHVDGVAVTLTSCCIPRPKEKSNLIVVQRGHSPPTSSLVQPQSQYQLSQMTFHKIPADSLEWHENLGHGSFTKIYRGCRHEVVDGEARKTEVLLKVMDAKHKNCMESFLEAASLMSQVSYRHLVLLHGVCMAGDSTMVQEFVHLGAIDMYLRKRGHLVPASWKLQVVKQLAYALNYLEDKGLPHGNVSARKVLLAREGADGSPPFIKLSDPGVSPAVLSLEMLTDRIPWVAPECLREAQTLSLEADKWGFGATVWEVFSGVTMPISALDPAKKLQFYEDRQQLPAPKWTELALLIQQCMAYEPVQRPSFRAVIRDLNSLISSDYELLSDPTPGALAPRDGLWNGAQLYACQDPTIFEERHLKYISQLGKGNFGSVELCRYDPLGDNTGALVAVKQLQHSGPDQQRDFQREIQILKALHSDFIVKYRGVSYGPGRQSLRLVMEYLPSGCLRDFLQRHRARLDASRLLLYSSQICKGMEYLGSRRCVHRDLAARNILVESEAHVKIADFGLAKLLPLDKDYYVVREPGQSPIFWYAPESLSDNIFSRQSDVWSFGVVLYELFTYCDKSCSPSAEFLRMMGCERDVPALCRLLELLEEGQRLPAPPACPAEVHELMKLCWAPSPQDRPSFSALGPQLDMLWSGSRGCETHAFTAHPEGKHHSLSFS
Text: as §1

[4] = molecular target: 320 wild-type protein kinases (Homo sapiens, UniProt P14616); details: INSR-R, singlicate
Sequence of 320 wild-type protein kinases (Homo sapiens, UniProt P14616) (P14616 27-1297): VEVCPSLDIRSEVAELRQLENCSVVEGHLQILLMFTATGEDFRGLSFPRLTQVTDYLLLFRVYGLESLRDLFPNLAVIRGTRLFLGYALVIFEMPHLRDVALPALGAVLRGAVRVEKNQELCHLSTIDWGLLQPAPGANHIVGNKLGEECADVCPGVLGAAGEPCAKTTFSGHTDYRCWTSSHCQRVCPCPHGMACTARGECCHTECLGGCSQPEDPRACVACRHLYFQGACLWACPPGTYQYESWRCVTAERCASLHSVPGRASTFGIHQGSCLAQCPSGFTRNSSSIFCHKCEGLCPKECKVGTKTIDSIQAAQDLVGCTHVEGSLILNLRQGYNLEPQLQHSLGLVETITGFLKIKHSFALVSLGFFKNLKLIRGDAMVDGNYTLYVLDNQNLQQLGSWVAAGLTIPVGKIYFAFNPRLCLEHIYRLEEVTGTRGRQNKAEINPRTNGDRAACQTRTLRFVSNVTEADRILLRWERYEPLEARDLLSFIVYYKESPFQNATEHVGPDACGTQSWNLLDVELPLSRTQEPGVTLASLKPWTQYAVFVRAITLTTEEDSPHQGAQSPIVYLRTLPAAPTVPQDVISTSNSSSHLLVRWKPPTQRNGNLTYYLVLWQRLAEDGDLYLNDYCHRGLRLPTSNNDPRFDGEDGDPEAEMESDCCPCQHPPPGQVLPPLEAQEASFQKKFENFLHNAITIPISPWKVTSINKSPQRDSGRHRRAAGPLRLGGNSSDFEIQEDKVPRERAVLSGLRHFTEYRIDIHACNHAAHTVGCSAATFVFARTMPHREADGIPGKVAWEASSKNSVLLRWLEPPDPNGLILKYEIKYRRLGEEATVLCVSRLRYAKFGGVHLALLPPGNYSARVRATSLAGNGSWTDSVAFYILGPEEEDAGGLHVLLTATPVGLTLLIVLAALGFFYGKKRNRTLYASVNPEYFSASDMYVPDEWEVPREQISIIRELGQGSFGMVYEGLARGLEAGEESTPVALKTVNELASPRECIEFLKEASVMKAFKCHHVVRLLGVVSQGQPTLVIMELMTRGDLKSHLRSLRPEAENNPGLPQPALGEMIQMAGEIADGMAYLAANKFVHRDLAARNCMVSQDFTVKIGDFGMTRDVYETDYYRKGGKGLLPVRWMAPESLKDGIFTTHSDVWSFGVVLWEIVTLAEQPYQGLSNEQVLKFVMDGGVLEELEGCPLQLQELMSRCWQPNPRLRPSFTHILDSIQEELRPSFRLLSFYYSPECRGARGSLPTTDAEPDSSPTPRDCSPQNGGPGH
Text: as §1

[5] = molecular target: T2, 320 wild-type protein kinases (Homo sapiens, UniProt O43318); details: singlicate
T2 sequence (O43318 1-606): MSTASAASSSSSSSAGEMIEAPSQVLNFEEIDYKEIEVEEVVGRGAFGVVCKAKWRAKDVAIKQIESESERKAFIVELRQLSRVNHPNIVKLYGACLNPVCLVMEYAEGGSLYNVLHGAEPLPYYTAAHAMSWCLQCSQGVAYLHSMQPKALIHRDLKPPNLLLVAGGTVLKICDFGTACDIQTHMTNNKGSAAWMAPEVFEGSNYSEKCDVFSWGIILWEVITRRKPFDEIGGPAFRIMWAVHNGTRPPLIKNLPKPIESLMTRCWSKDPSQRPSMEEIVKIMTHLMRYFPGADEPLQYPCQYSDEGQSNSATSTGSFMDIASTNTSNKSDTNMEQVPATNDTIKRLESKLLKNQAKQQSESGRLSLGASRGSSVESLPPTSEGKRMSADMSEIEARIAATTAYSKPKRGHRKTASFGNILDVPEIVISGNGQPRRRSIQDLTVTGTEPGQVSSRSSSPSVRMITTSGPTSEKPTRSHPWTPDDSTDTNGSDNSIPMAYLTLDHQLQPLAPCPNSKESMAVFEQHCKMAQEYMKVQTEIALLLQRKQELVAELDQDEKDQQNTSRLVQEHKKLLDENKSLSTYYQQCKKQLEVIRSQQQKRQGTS
Text: as §1

[6] = molecular target: 320 wild-type protein kinases (Homo sapiens, UniProt O00506); details: kinase STK25, singlicate
Text: as §1

[7] = molecular target: 320 wild-type protein kinases (Homo sapiens, UniProt P23443); details: kinase S6K, singlicate
Text: as §1

[8] = molecular target: 320 wild-type protein kinases (Homo sapiens, UniProt Q04759); details: PKC-theta, singlicate
Sequence of 320 wild-type protein kinases (Homo sapiens, UniProt Q04759) (Q04759 whole entry): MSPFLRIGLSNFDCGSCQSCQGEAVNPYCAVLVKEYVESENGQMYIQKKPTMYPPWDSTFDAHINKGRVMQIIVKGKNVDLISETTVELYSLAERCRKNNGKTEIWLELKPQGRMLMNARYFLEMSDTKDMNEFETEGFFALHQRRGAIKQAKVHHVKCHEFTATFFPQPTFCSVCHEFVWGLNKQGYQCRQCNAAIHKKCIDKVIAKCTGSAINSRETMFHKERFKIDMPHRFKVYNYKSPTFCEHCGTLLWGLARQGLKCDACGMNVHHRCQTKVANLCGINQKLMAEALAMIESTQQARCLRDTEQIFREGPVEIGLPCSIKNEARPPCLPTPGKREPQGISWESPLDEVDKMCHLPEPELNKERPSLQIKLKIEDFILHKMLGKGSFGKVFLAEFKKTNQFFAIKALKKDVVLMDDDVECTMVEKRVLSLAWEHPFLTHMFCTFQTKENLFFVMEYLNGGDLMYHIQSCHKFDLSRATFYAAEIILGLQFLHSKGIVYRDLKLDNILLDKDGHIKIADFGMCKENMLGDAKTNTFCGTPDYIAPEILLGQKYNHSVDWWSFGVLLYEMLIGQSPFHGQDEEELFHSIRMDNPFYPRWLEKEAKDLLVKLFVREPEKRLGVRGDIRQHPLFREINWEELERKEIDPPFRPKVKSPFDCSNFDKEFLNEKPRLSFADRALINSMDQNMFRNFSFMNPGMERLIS
Text: as §1

[9] = molecular target: 320 wild-type protein kinases (Homo sapiens, UniProt P80192); details: singlicate
Sequence of 320 wild-type protein kinases (Homo sapiens, UniProt P80192) (P80192 whole entry): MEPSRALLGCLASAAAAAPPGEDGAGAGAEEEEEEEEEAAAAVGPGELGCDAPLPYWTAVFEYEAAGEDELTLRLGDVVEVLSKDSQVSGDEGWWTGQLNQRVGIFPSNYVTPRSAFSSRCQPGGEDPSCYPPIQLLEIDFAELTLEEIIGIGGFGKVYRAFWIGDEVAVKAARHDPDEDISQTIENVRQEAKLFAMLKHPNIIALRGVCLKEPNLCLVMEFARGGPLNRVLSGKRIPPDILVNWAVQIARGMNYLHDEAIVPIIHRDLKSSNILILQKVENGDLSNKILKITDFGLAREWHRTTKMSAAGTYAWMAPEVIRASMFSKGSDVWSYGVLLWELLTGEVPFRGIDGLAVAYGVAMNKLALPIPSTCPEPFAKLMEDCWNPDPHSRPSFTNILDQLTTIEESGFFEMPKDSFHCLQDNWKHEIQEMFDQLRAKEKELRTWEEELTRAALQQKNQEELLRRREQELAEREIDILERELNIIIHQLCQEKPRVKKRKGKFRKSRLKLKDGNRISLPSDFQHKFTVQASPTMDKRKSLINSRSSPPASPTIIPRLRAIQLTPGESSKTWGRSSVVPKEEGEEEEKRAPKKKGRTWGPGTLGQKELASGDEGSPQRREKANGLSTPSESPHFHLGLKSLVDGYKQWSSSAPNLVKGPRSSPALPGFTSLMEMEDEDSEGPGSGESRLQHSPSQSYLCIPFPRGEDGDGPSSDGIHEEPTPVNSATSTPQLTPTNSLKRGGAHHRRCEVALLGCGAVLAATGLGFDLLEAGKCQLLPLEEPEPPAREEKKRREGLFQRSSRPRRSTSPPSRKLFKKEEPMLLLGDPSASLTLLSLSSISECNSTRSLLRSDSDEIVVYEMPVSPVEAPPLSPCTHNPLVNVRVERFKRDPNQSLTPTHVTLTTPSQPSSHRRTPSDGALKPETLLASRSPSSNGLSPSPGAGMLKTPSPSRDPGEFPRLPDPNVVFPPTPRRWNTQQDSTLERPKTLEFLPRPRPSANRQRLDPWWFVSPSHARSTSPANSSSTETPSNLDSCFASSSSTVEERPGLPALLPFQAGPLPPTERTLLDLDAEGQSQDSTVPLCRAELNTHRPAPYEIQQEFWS
Text: as §1

[10] = molecular target: 320 wild-type protein kinases (Homo sapiens, UniProt Q16288); details: kinase TRK-C, singlicate
Sequence of 320 wild-type protein kinases (Homo sapiens, UniProt Q16288) (Q16288 32-839): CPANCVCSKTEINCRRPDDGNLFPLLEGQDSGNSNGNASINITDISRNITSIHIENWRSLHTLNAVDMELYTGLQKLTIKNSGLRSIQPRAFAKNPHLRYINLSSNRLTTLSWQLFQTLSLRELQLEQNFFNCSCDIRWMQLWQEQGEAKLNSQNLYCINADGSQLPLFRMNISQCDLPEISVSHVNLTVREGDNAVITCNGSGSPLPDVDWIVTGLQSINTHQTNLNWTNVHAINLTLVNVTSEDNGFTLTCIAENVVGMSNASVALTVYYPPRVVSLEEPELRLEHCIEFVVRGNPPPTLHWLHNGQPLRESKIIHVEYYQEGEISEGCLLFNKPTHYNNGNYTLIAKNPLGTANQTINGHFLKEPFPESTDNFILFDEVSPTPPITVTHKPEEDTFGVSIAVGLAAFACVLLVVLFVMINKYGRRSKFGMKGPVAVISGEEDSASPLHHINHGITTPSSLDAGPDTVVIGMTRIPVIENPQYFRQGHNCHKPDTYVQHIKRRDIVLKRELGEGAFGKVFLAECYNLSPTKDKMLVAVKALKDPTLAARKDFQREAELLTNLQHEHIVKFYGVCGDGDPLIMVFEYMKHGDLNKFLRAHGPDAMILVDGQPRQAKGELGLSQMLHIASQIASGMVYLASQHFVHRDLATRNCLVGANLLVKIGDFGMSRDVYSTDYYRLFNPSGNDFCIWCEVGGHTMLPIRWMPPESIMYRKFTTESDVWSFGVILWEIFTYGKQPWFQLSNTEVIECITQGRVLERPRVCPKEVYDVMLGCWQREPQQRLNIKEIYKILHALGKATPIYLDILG
Text: as §1

[11] = molecular target: 320 wild-type protein kinases (Homo sapiens, UniProt Q86V86); details: singlicate
Text: as §1

[12] = molecular target: 320 wild-type protein kinases (Homo sapiens, UniProt P36507); details: singlicate
Text: as §1

SMILES	Residual activity ([1]; PLK3, 1.0E-06 M)	Residual activity ([1]; PLK3, 1.0E-07 M)	Residual activity ([2]; PLK1, 1.0E-06 M)	Residual activity ([2]; PLK1, 1.0E-07 M)	Residual activity ([3]; JAK3, 1.0E-06 M)	Residual activity ([3]; JAK3, 1.0E-07 M)	Residual activity ([4]; 1.0E-06 M)	Residual activity ([4]; 1.0E-07 M)	Residual activity ([5]; MAP3K7/MAP3K7IP1, 1.0E-06 M)	Residual activity ([5]; MAP3K7/MAP3K7IP1, 1.0E-07 M)	Residual activity, STK25 ([6]; assay conc. 1.0E-06 M)	Residual activity, STK25 ([6]; assay conc. 1.0E-07 M)	Residual activity, S6K ([7]; assay conc. 1.0E-06 M)	Residual activity, S6K ([7]; assay conc. 1.0E-07 M)	Residual activity ([8]; 1.0E-06 M)	Residual activity ([8]; 1.0E-07 M)	Residual activity ([9]; MAP3K9, 1.0E-06 M)	Residual activity ([9]; MAP3K9, 1.0E-07 M)	Residual activity, TRK-C ([10]; assay conc. 1.0E-06 M)	Residual activity, TRK-C ([10]; assay conc. 1.0E-07 M)	also measured
C#Cc1cc(Nc2ncnc3cc(I)ccc23)ccc1Cl [Compound 41]	102 % of control	109 % of control	98 % of control	98 % of control	78 % of control	108 % of control	93 % of control	96 % of control	87 % of control	98 % of control	100 % of control	95 % of control	123 % of control	135 % of control	102 % of control	101 % of control	87 % of control	97 % of control	105 % of control	115 % of control	Residual activity ([11]; PIM3, 1.0E-06 M): 83 % of control; Residual activity ([11]; PIM3, 1.0E-07 M): 81 % of control; Residual activity ([12]; MEK2, 1.0E-06 M): 80 % of control; Residual activity ([12]; MEK2, 1.0E-07 M): 101 % of control
C#Cc1cc(Nc2ncnc3cc(OC)c(OC)cc23)ccc1Cl [Compound 45]	98 % of control	103 % of control	77 % of control	91 % of control	85 % of control	112 % of control	99 % of control	103 % of control	79 % of control	81 % of control	104 % of control	111 % of control	121 % of control	122 % of control	101 % of control	109 % of control	61 % of control	92 % of control	113 % of control	136 % of control	Residual activity ([11]; PIM3, 1.0E-06 M): 53 % of control; Residual activity ([11]; PIM3, 1.0E-07 M): 81 % of control; Residual activity ([12]; MEK2, 1.0E-06 M): 105 % of control; Residual activity ([12]; MEK2, 1.0E-07 M): 102 % of control
